Test results: BindingDB's records for doi:10.1038/sj.bjp.0701367 (Kyoto University, 1997)

Columns and labels:
[1] = target: T1, Prostaglandin E2 receptor EP3 subtype (Mus musculus, UniProt P30557)
T1 sequence (P30557 whole entry): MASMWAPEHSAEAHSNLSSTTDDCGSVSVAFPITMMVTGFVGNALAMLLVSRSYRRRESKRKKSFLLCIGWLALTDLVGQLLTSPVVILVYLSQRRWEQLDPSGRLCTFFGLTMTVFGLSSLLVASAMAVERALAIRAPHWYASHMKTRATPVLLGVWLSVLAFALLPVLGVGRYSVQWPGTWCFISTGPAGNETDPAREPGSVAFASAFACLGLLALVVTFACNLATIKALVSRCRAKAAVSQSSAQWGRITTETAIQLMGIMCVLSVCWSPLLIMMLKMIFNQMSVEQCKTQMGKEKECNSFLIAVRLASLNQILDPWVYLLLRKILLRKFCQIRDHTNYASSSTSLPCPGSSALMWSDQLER

[2] = target: Prostacyclin receptor (Mus musculus, UniProt P43252)
Sequence of Prostacyclin receptor (P43252 whole entry): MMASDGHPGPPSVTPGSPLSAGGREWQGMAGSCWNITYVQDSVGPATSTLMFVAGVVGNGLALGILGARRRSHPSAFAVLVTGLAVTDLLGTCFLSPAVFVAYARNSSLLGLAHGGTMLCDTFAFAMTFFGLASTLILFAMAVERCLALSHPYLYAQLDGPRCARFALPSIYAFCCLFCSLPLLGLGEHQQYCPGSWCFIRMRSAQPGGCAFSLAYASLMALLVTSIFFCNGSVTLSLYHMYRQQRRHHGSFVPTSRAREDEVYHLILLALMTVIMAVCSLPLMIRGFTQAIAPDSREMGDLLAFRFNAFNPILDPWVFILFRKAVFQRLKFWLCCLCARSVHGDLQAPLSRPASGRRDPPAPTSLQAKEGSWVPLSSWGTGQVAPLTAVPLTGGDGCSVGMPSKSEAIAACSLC

[3] = target: Prostaglandin E2 receptor EP2 subtype (Mus musculus, UniProt Q62053)
Sequence of Prostaglandin E2 receptor EP2 subtype (Q62053 whole entry): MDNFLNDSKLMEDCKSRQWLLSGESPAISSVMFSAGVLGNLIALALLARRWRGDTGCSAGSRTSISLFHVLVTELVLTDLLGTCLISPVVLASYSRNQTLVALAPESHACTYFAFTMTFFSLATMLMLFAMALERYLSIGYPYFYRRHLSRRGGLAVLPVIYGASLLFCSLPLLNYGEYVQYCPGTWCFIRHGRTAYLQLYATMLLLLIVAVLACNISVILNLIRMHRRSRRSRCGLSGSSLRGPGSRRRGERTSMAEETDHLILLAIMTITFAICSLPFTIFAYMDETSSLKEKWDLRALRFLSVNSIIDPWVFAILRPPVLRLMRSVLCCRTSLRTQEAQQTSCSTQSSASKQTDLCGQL

[4] = target: T2, Prostaglandin E2 receptor EP1 subtype (Mus musculus, UniProt P35375)
T2 sequence (P35375 whole entry): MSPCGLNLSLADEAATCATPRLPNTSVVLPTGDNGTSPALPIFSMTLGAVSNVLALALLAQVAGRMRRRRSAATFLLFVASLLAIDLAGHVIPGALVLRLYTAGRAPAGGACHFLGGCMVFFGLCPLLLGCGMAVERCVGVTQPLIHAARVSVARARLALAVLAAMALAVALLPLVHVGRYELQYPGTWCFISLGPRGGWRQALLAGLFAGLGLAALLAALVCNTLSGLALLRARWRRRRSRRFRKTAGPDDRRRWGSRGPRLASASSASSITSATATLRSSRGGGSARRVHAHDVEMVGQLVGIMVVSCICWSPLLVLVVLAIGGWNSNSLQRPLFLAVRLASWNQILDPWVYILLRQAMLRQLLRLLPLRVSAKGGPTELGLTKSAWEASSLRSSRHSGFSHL

[5] = target: Prostaglandin E2 receptor EP4 subtype (Mus musculus, UniProt P32240)
Sequence of Prostaglandin E2 receptor EP4 subtype (P32240 whole entry): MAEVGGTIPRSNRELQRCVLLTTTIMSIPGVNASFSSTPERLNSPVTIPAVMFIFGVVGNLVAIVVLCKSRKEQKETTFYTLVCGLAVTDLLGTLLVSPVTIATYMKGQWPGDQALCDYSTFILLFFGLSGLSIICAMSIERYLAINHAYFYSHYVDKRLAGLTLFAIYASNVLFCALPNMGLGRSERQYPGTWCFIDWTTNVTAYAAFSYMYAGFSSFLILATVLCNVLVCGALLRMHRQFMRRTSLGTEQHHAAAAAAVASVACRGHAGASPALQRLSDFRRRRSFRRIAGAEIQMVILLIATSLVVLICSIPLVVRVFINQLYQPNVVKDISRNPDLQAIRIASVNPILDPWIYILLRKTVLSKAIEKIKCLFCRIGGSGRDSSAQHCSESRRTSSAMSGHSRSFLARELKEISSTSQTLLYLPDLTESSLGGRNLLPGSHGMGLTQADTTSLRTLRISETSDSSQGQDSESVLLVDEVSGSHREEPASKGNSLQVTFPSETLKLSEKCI

[6] = target: Prostaglandin F2-alpha receptor (Mus musculus, UniProt P43117)
Sequence of Prostaglandin F2-alpha receptor (P43117 whole entry): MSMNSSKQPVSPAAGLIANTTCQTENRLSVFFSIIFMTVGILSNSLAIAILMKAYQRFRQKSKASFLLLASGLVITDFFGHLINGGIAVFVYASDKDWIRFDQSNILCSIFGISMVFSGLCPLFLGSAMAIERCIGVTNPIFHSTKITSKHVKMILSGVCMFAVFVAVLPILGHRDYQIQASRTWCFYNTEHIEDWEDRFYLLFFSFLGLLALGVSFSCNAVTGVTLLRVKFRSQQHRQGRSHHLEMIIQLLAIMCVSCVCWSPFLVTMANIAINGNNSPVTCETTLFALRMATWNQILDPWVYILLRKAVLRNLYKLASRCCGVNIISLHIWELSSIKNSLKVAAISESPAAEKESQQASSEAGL

[7] = target: T3, Thromboxane A2 receptor (Mus musculus, UniProt P30987)
T3 sequence (P30987 whole entry): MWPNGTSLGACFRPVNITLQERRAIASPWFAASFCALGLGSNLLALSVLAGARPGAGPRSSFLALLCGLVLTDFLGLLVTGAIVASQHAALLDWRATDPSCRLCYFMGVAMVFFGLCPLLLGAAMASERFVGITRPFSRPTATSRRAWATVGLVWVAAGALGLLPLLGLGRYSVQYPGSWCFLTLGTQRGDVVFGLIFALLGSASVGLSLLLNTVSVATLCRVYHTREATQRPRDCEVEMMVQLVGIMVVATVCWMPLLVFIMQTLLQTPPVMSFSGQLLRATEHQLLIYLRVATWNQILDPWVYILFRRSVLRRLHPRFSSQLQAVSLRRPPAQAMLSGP

Row | Compound | Ki [1] [nM] | Ki [2] [nM] | Ki [3] [nM] | Ki [4] [nM] | Ki [5] [nM] | Ki [6] [nM] | Ki [7] [nM]
1 | CC#CCC(C)[C@H](O)/C=C/[C@@H]1[C@H]2C/C(=C/CCCC(=O)O)C[C@H]2C[C@H]1O (some centres not stated) | 22 | 11 | 1600 | 21 | 2300 | – | –
2 | CCCCC[C@@H](O)/C=C/[C@H]1[C@H](O)CC(=O)[C@@H]1CCCCCCC(=O)O | 1.1 | 33 | 10 | 36 | 2.1 | – | –
3 | CCCCC[C@H](O)/C=C/[C@@H]1[C@H]2C/C(=C\CCCC(=O)O)C[C@H]2C[C@H]1O | 31 | 110 | 1600 | – | 2300 | 1200 | –
4 | CCCCC(C)(C)C(O)C=CC1C(O)CC(=O)C1CC=CCCCC(=O)O (configuration not stated) | 1.9 | – | 17 | – | 43 | 350 | –
5 | O=C(O)CCC/C=C\C[C@@H]1C(NS(=O)(=O)c2ccccc2)C2CC[C@@H]1C2 (single isomer, unassigned; (+)) [S 145] | – | – | – | – | – | – | 0.68
6 | CCCCC[C@H](O)/C=C/C1[C@H](O)C[C@H](O)[C@@H]1C/C=C\CCCC(=O)O (stereo partly drawn) [(Z)-7-[(1R,3R,5S)-3,5-Dihydroxy-2-((E)-(S)-3-hydroxy-oct-1-enyl)-cyclopentyl]-hept-5-enoic acid] | 75 | – | – | 1300 | – | – | –
7 | O=C(O)CCCC=CCC1C(O)CC(O)C1C=CC(O)COc1cccc(C(F)(F)F)c1 (configuration not stated) [CAS_40666-16-8] | – | – | – | – | – | 3.8 | –
8 | CS(=O)(=O)NC(=O)CCCC=CCC1C(=O)CC(O)C1C=CC(O)COc1ccccc1 (configuration not stated) [CAS_60325-46-4] | 0.6 | – | – | 21 | – | 580 | –
9 | O=C(O)CCC/C=C\C[C@H]1[C@@H]2CCC(O2)[C@@H]1/C=C/[C@@H](O)COc1ccc(I)cc1 [I-BOP] | 100 | – | 220 | – | – | 100 | 0.56
10 | CC#CCC(C)C(O)C=CC1C(O)CC2Oc3c(CCCC(=O)O)cccc3C21 (configuration not stated) [NSC_2352] | 110 | 16 | – | – | – | – | –
11 | CCCCCC(O)C=CC1C(O)CC2C=C(CCCCC(=O)O)CC21 (configuration not stated) [NSC_5311244] | 31 | 15 | 1000 | – | – | – | –
12 | C[C@H](O)CCCC(O)C=CC1C(O)CC(=O)C1CC=CCCCC(=O)O (some centres not stated) [PGE2,19R(OH)] | – | – | – | – | – | 1000 | –

Next, values leading:

Row | Ki [1] [nM] | Ki [2] [nM] | Ki [3] [nM] | Ki [4] [nM] | Ki [5] [nM] | Ki [6] [nM] | Ki [7] [nM] | Compound
13 | 3.7 | – | – | 14 | 1000 | 60 | – | O=C(O)CCC/C=C\C[C@H]1C(=O)C[C@@H](O)[C@@H]1/C=C/[C@@H](O)CCc1ccccc1 [17-PHENYL TRINOR PROSTAGLANDIN E2]
14 | – | – | 110 | – | – | – | – | CCCC1([C@@H](O)C/C=C/C2[C@H](O)CC(=O)[C@@H]2CCCCCCC(=O)OC)CCC1 (some centres not stated) [Butaprost (Methyl Ester)]
15 | – | – | 350 | – | – | – | – | CC(C)Oc1ccc2c(=O)c3cc(C(=O)O)ccc3oc2c1 [CAS_33458-93-4]
16 | 280 | – | – | – | – | 47 | – | CCCCCC(O)CC=C1C(=O)C=CC1CC=CCCCC(=O)O (configuration not stated) [CAS_41598-07-6]
17 | 0.68 | – | – | 120 | 500 | 124 | 1300 | O=C(O)CCCCCCC1C(=O)CCC1C=CC(O)COc1ccccc1 (configuration not stated) [CAS_80558-61-8]
18 | 170 | 10 | 1300 | – | – | – | – | CCC#CCC(C)C(O)C#CC1C(O)CC2CC(=CCOCC(=O)O)CC21 (configuration not stated) [CAS_94079-80-8]
19 | 82 | – | 240 | – | – | – | – | CCCCCC(O)c1ccc(C2CCC(=O)C2CCCCCCC(=O)O)cc1 (configuration not stated) [CAS_132836]
20 | 0.85 | – | 12 | 20 | – | 100 | – | CCCCC[C@H](O)/C=C/[C@H]1[C@H](O)CC(=O)[C@@H]1C/C=C\CCCC(=O)O [DINOPROSTONE]
21 | – | – | – | – | – | – | 12 | O=C(O)CC/C=C\CC[C@@H]1[C@@H](N2CCCCC2)[C@@H](O)C[C@@H]1OCc1ccc(-c2ccccc2)cc1 [GR 32191]
22 | 67 | – | 250 | 120 | 67 | – | – | CCCCC(C)(O)CC=CC1C(O)CC(=O)C1CCCCCCC(=O)OC (configuration not stated) [MISOPROSTOL (Methyl Ester)]
23 | 740 | 47 | – | – | – | – | – | CC1=C(CCON=C(c2ccccc2)c2cccnc2)c2cccc(OCC(=O)O)c2CC1 [NSC_128021]
24 | – | – | – | – | – | 1700 | – | O=C(O)CCCCCCc1c(O)[nH]c(=O)n1CCC(O)C1CCCCC1 (configuration not stated) [NSC_3080928]
25 | 1.9 | – | – | – | 480 | – | – | O=C(CCC=CCCC1C(=O)CC(O)C1OCC(O)COc1ccccc1)Oc1ccc(NC(=O)c2ccccc2)cc1 (configuration not stated) [NSC_5311224]
26 | 330 | – | – | – | 190 | – | – | O=C(O)CCCCCCC1C(=O)CC(O)C1C=CC(O)CCCCCO (configuration not stated) [PGE1,1-OH]
27 | 1.5 | 1000 | 45 | 600 | 23 | – | – | CCCCCC(O)C=CC1CCC(=O)C1CCCCCCC(=O)O (configuration not stated) [PGE1,11-DEOXY]
28 | 23 | – | 220 | – | 350 | 97 | 14 | CCCCC[C@H](O)/C=C/C1C[C@H]2C[C@H](S2)[C@@H]1C/C=C\CCCC(=O)O (some centres not stated) [STA2]
29 | – | – | – | – | – | 1000 | 67 | CCCCC[C@H](O)/C=C/C1[C@@H](C/C=C\CCCC(=O)O)[C@H]2CO[C@@H]1C2 (some centres not stated) [U46619]
